Measured values: paper PMC8151276, “An Integrated Approach toward NanoBRET Tracers for Analysis of GPCR Ligand Engagement” (Molecules, 2021)

Molecular target: T1, ADRA1B (Homo sapiens, UniProt P35368)
T1 construct: purchased Promega (in-house HiBiT-GPCR construct library, NanoBRET)
T1 sequence (P35368 1-520): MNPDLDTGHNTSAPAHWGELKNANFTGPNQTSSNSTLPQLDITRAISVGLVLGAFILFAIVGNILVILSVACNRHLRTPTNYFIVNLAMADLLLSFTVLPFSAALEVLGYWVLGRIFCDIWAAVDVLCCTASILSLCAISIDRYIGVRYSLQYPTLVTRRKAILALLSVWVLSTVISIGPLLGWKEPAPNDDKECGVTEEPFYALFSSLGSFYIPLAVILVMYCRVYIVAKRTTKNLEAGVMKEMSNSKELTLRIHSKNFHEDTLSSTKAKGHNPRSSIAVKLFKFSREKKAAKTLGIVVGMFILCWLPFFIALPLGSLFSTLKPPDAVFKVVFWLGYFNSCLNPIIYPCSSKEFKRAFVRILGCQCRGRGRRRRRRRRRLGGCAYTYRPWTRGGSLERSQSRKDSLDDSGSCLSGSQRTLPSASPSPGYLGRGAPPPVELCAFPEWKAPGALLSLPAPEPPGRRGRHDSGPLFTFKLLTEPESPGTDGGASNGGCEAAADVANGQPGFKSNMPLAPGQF
Experiment: NanoBRET screen HiBiT-ADRA1B in HEK293
Assay type: binding
Experimental: Each tracer candidate was screened across the entire library of HiBiT-GPCR constructs using NanoBRET as the detection modality. As depicted in Figure 4A, the specificity of interactions was evaluated through decrease in BRET due to competitive displacement of a bound tracer by excess parental compound. Each tracer was analyzed for binding to each HiBiT-GPCR fusion in the absence and in the presence of competing parental compound. Briefly, HEK293 cells were transfected with HiBiT-GPCR constructs diluted into promoterless DNA to reduce expression and maximize translocation to the cell surface. Each tracer candidate was then screened at concentrations of 1 μM and 0.1 μM across cells expressing these fusions. Cells were treated for 1.5 h with tracer either alone or in the presence of 20 μM competing parental compound (i.e., control). BRET was measured upon addition of purified LgBiT and subsequent complementation with HiBiT genetically fused to a GPCR. The specificity of interactions was assessed through a decrease in BRET signal due to competitive displacement of the bound tracer. To further gauge the robustness of these interactions, the fold response over the control (i.e., BRETtracer/BRETcontrol) was calculated. We chose a 1.5-fold response, which translates to ≥7-fold signal over noise as the minimal threshold required to score an interaction as positive.
HiBiT-GPCR DNA constructs were diluted in 10 mM Tris pH 8 to a final concentration of 0.01 μg/μL, arrayed in 96-well plates and stored at −20 °C. For transfection, HEK293 cells were suspended in Opti-MEM (without phenol red) supplemented with 2% fetal bovine serum (Seradigm) and 100 units/mL penicillin–streptomycin (Gibco) at a final concentration of 220,000 cells/mL and dispensed into white 96-well plates at 90 μL/well. Subsequent transfections and screens were carried using an Agilent Bravo Automated Liquid Handling Platform. First, the 96-well HiBiT DNA arrays were diluted 25-fold in Opti-MEM (without serum or phenol red) to a final concentration of 0.0004 μg/μL and 20 μL of the diluted DNAs were transferred into new 96-well plates. Next, promoterless carrier DNA (1 μg/μL) was diluted 25-fold (0.04 μg/μL) and then dispensed into the diluted arrays at 20 μL/well. Following brief mixing, Viafect transfection reagent (Promega) diluted 16-fold into Opti-MEM was dispensed into the plates at 40 μL/well. After mixing by pipetting, plates were incubated for 10 min on the pipetting station deck. The DNA-transfection reagent complexes were then added to plates containing cells. To facilitate the screen, 10 μL of DNA-transfection reagent complexes were added in duplicates to the top 4 and bottom 4 rows, resulting in two identical 48-well arrays per plate. Plates with transfected cells were incubated for 18–20 h at 37 °C/5% CO2. A screen of each tracer across the entire library using two different concentrations requires duplicate plates of transfected cells. Depending on the number of tracers being screened, transfections can be scaled up using the same ratios. The next day, for each tracer, four 20× screening solutions in tracer dilution buffer (Promega) were prepared: two duplicates at final concentration of 20 μM and two duplicates at a final concentration of 2 μM. […] The four resulting solutions were diluted 4-fold in Opti-MEM without serum or phenol red to generate 5× solutions (5 µM and 0.5 µM tracer +/− 100 μM competing compound). To screen the library, a BioTek MultiFlo FX liquid dispenser was used to dispense 22.5 µL of tracer solution to the top 4 rows and 22.5 µL tracer + competing compound solution to the 4 bottom rows. Plates were briefly mixed on an orbital shaker and incubated for 1.5 h at room temperature. […] Plates were briefly mixed on an orbital shaker and incubated for 15 min to allow complementation.

Compound	NanoBRET Fold Response (ADRA1B, tracer 0.1μM)	NanoBRET Fold Response (ADRA1B, tracer 1μM)	other results
O=C(CCc1ccc2n1[B-](F)(F)[N+]1=C(c3ccc[nH]3)C=CC1=C2)NCc1ccc(C(=O)NCCOCCC(=O)N[C@@H]2CC[C@@]3(O)[C@H]4Cc5ccc(O)c6c5[C@@]3(CCN4CC3CC3)[C@H]2O6)cc1 [Naltrexone-3-NB590]	0.53	0.79	
CCCn1c(=O)c2[nH]c(-c3ccc(OCC(=O)NCCNC(=O)CCOCCNC(=O)c4ccc(CNC(=O)CCc5ccc6n5[B-](F)(F)[N+]5=C(c7ccc[nH]7)C=CC5=C6)cc4)cc3)nc2n(CCC)c1=O [XAC-3-NB590]	1.05	1.17	
CC(C)N(CC[C@H](c1ccccc1)c1cc(CCNC(=O)c2ccc(CNC(=O)CCc3ccc4n3[B-](F)(F)[N+]3=C(c5ccc[nH]5)C=CC3=C4)cc2)ccc1O)C(C)C [Tolterodine-BZ-NB590]	1.17	1.05	
N#CN/C(=N\CCNC(=O)c1ccc(N)cc1)NCCCOc1cccc(CN2CCCCC2)c1 [Aminopotentidine (unmodified)]			NanoBRET Fold Response (ADRA1B, other tracers/Aminopotentidine (unmodified), 0.1μM): 1.03; NanoBRET Fold Response (ADRA1B, other tracers/Aminopotentidine (unmodified), 1μM): 0.99
COc1ccc2[nH]c(-c3ccc(CNC(=O)CCOCCOCCOCCOCCNC(=O)CCc4ccc5n4[B-](F)(F)[N+]4=C(c6ccc[nH]6)C=CC4=C5)cc3)c(CCNC(C)=O)c2n1 [AzomelatoninICO9-2-NB590]			NanoBRET Fold Response (0.1μM tracer): 0.91; NanoBRET Fold Response (1μM tracer): 0.97
COc1ccccc1N1CCN(CCCCN2C(=O)c3ccc(CNC(=O)CCOCCNC(=O)c4ccc(CNC(=O)CCc5ccc6n5[B-](F)(F)[N+]5=C(c7ccc[nH]7)C=CC5=C6)cc4)cc3C2=O)CC1 [NAN-190-3-NB590]	1.70	1.72	
O=C(CCOCCOCCOCCOCCNC(=O)CCc1ccc2n1[B-](F)(F)[N+]1=C(c3ccc[nH]3)C=CC1=C2)NCCCN1CCN(C2=Nc3ccccc3Oc3ccc(Cl)cc32)CC1 [Loxapine-a-2-NB590]	1.78	1.54	
COc1ccccc1N1CCN(CCCCN2C(=O)c3ccc(CNC(=O)CCOCCOCCOCCOCCNC(=O)CCc4ccc5n4[B-](F)(F)[N+]4=C(c6ccc[nH]6)C=CC4=C5)cc3C2=O)CC1 [NAN-190-2-NB590]	1.80	1.59	
CC(C)N(CC[C@H](c1ccccc1)c1cc(CCNC(=O)CCOCCOCCOCCOCCNC(=O)CCc2ccc3n2[B-](F)(F)[N+]2=C(c4ccc[nH]4)C=CC2=C3)ccc1O)C(C)C [Tolterodine-2-NB590]	1.16	1.06	
N#CN=C(NCCCOc1cccc(CN2CCCCC2)c1)NCCNC(=O)CCOCCOCCOCCOCCNC(=O)CCc1ccc2n1[B-](F)(F)[N+]1=C(c3ccc[nH]3)C=CC1=C2 [Aminopotentidine-2-NB590]	1.10	1.01	
CCOC(=O)c1cc(C#N)c(N2CCC(C(=O)NS(=O)(=O)Cc3ccccc3/C=C/C(=O)NCCNC(=O)CCc3ccc4n3[B-](F)(F)[N+]3=C(c5ccc[nH]5)C=CC3=C4)CC2)nc1C [AZD1283-1-NB590]			NanoBRET Fold Response (ADRA1B, 0.1μM): 1.08; NanoBRET Fold Response (ADRA1B, 1μM): 1.06
CN(C)CCC=C1c2ccccc2CCc2ccc(C(=O)NCCNC(=O)CCOCCOCCOCCOCCNC(=O)CCc3ccc4n3[B-](F)(F)[N+]3=C(c5ccc[nH]5)C=CC3=C4)cc21 [Amitriptyline-b-2-NB590]			NanoBRET Fold Response (tracer at 0.1μM, listed as amitriptyline-b-2-NB590): 1.73; NanoBRET Fold Response (tracer at 1μM, listed as amitriptyline-b-2-NB590): 1.67
CN(C)CCC=C1c2ccccc2CCc2ccc(C(=O)NCCNC(=O)CCOCCOCCOCCOCCNC(=O)CCc3ccc4n3[B-](F)(F)[N+]3=C(c5ccc[nH]5)C=CC3=C4)cc21 [Amitriptyline-a-2-NB590]			NanoBRET Fold Response (tracer at 0.1μM): 1.19; NanoBRET Fold Response (tracer at 1μM): 1.46
O=C(CCc1ccc2n1[B-](F)(F)[N+]1=C(c3ccc[nH]3)C=CC1=C2)NCCOCCOCCNC(=O)OCCOCCN1CCN(C2=Nc3ccccc3Sc3ccccc32)CC1 [Quetiapine-a-2-NB590]	1.52	1.59	
Cc1cc2c(s1)Nc1ccccc1N=C2N1CCN(CCCNC(=O)CCOCCOCCOCCOCCNC(=O)CCc2ccc3n2[B-](F)(F)[N+]2=C(c4ccc[nH]4)C=CC2=C3)CC1 [Olanzapine-a-2-NB590]	1.26	1.98	
COc1ccc2c(n1)c(CCNC(C)=O)cn2CCNC(=O)CCc1ccc2n1[B-](F)(F)[N+]1=C(c3ccc[nH]3)C=CC1=C2 [Azamelatonin-1-NB590]			NanoBRET Fold Response (0.1μM tracer): 0.97; NanoBRET Fold Response (1μM tracer): 0.88
CN(CCC=C1c2ccccc2CCc2ccccc21)C(=O)CCOCCOCCOCCOCCNC(=O)CCc1ccc2n1[B-](F)(F)[N+]1=C(c3ccc[nH]3)C=CC1=C2 [Amitriptyline-e-2-NB590]			NanoBRET Fold Response (tracer at 1μM): 1.04
O=C(CCc1ccc2n1[B-](F)(F)[N+]1=C(c3ccc[nH]3)C=CC1=C2)NCc1ccc(C(=O)NCCOCCOCCNCC(O)COc2cccc3ccccc23)cc1 (stereo not shown) [Propranolol-3-NB590]			NanoBRET Fold Response (ADRA1B, 0.1μM): 1.14; NanoBRET Fold Response (ADRA1B, 1μM): 1.10
O=C(CCOCCOCCOCCOCCNC(=O)CCc1ccc2n1[B-](F)(F)[N+]1=C(c3ccc[nH]3)C=CC1=C2)NCCCN1CCN(C2=Nc3cc(Cl)ccc3Nc3ccccc32)CC1 [Clozapine-a-2-NB590]			NanoBRET Fold Response (ADRA1B, 0.1μM tracer): 1.65; NanoBRET Fold Response (ADRA1B, 1μM tracer): 1.52
